Reference: US7235531B2, “Tachykinin-like polypeptides and use thereof” (Takeda Pharmaceutical Company, priority 1999, dated 2007)
No end group written: not given here.

Legend:
[1] = tested on: guinea pig ileum specimens; assay: Contracting activity of ATT(35-45) on guinea pig ileum specimens; assay type: cell-based; details: 10^−10 M to 3×10^−7 M
Experimental: The horizontal axis in the figure represents the dose (M) of ATT(35-45), and the vertical axis represents the rate of contraction relative to the contraction of the guinea pig ileum specimens induced by 10^-6 M acetylcholine.
The contracting activity of ATT(35-45) on guinea pig ileum specimens was determined in the following manner. 13 to 15-week old male guinea pigs (std: Hartley) were exsanguinated, and the ileum was excised. The ileum was cut to a length of 1.5 cm to prepare specimens. The specimens were aerated with a gas mixture (95% O^2-5% CO2) while suspended in Tyrode's solution (137.9 mM NaCl, 2.7 mM KCl, 1.8 mM CaCl2, 0.5 mM MgCl2, 1.1 mM NaH2PO4, 11.9 mM NaHCO3, and 5.6 mM glucose) maintained at 37° C., and the isotonic contractions under a 0.5 g load were recorded. The peptide was administered cumulatively in the organ bath.

anesthetized rats = assay: Activity of ATT(35-45) on blood pressure in anesthetized rats; assay type: in vivo, Male Wistar rats; details: for decrease in blood pressure: left femoral vein (i.v.), n=4, mean±standard deviation
Experimental: The activity of ATT(35-45) on blood pressure in anesthetized rats was determined in the following manner. Male Wistar rats (weighing 300 to 400 g, by CLEA Japan Inc.) were anesthetized with thiobutabarbital sodium (100 mg/kg i.p.), a catheter (SP-55) for measuring blood pressure connected to a transducer was inserted into the left carotid artery, and a catheter (SP-35) for intravenous administration was inserted into the left femoral vein. The peptide was dissolved in physiological saline containing 0.05% BSA, and doses of 0.01, 0.1, and 1 nmol/kg were administered through the left femoral vein. The blood pressure was continuously recorded on a polygraph (NEC Sanei).

Question: With “TGKASQFFGLM-NH2 [ATT(35-45), Thr-Gly-Lys-Ala-Ser-Gln-Phe-Phe-Gly-Leu-Met-NH2]” as the substance, how does the “contraction of guinea pig ileum specimens (in words)” value [1] read?
Answer: The value was “concentration-dependent contraction”.

Question: And the “maximum contraction relative to the contraction induced with 10^−6 M acetylcholine” value ([1]; guinea pig ileum)?
Answer: Its value is “about 90%”.

Question: And the “decrease in blood pressure” value (anesthetized rats; 0.01 nmol/kg)?
Answer: The value was 12.3±0.8 mmHg.

Question: And the “decrease in blood pressure” value (anesthetized rats; 0.1 nmol/kg)?
Answer: The value was 21.5±1.8 mmHg.

Question: What about the “decrease in blood pressure” value (anesthetized rats; 1 nmol/kg) of the same substance?
Answer: The value was 33.8±6.6 mmHg.

Question: What about the “effect on blood pressure (in words)” value (anesthetized rats; doses of 0.01, 0.1 and 1 nmol/kg i.v.) of the same substance?
Answer: Its value is “dose-dependent decreases in blood pressure”.
